# Laboratory results from ChEMBL document CHEMBL3351956, “Design and synthesis of novel 1,2,3-triazole-pyrimidine hybrids as potential anticancer agents” (Eur J Med Chem, 2014).
# Experiments:
# Format in all cases: functional, cell-based
# [1] = tested on: MCF7; assay: Cytotoxicity against human MCF7 cells assessed as inhibition of proliferation after 72 hrs by MTT assay; settings: MCF7, 72 h
# [2] = tested on: MGC-803; assay: Cytotoxicity against human MGC803 cells assessed as inhibition of proliferation after 72 hrs by MTT assay; settings: MGC-803, 72 h
# [3] = Cytotoxicity against human EC109 cells assessed as inhibition of proliferation after 72 hrs by MTT assay; settings: ECa-109, 72 h
# [4] = Cytotoxicity against mouse B16F10 cells assessed as inhibition of proliferation after 72 hrs by MTT assay; settings: B16-F10, 72 h
SMILES,IC50 [1],IC50 [2],IC50 [3],IC50 [4]
O=c1[nH]cc(F)c(=O)[nH]1 [FLUOROURACIL],8.93 µM,7.69 µM,10.8 µM,0.87 µM
COc1ccc(Nc2nc(SCc3cn(Cc4ccccc4Cl)nn3)nc(-c3ccc(C(C)C)cc3)c2C#N)cc1,10.2 µM,> 64 µM,3.58 µM,2.69 µM
